{
  "source": "patent US4983636A",
  "about": "“Composition and method of treating selected malignant conditions” (Rikagaku Kenkyusho Wako, priority 1976, dated 1991)",
  "key": {"E. coli S": {"system": "E. coli S", "test": "uptake of 14C-substrate (tryptophane) by E. coli S", "conditions": "for tryptophane incorporation: E. coli S", "description": "(§1) In the Table, \"glucose\" was added as an energy source for cells in which propagation had been terminated and \"CM\" (Chloramphenicol) was added so as to terminate propagation of cells. […] Separately, instead of this composition of the foregoing additives, a composition comprising glucose, CM, 14C-substrate and colistin was added and cells were similarly obtained. The colistin was added for a comparison system to the Ba-added system because colistin is a permeation inhibitor for cell membranes (antibiotic substance).\n(§2) In Table 2, the value of each numerator means a value measured by a scintillation counter and the value of each denominator means a ratio (%) to the value of the control (100%)."}, "Ehrlich carcinoma [1]": {"system": "Ehrlich carcinoma", "test": "Test 3: tumor weight, subcutaneously implanted Ehrlich carcinoma (solid tumor)", "format": "in vivo, mice of RFVL", "description": "Ten mice of RFVL which were 4 to 5 weeks old were used as the experiemental animals, and about 10^6 cells/0.2 ml of Ehrlich carcinoma were implanted subcutaneously at the right armpit. […] This treatment was continued for 9 days. On the 11th day from the tumor implantation, the tumor weight was measured with respect to each group to obtain results shown in Table 5. In each of control and treated groups, the increase of the body weight in the tested mice during the test was 3.5 g as the average value determined on 10 mice."}, "lymphosarcoma": {"system": "lymphosarcoma", "test": "effect against lymphosarcoma", "conditions": "in words"}, "[2]": {"test": "excretion from the living body", "format": "in vivo", "conditions": "in words"}, "Adeno-carcinoma 755 [3]": {"system": "Adeno-carcinoma 755", "test": "Test 2: tumor weight, Adeno-carcinoma 755, intraperitoneal benzaldehyde", "format": "in vivo, mice (first filial generation of C57BL/6 and DBA/2)", "conditions": "11th day", "description": "(§3) As the experimental animal, there were used four mice of the first filial generation of C57BL/6 and DBA/2, which were 6 to 7 weeks old. A carcinoma (Adeno-carcinoma 755) was implanted on the hypoderm in the back by using an implanting needle. […] This treatment was conduced once a day for 9 days. On the 11th day from the implantation, the weight of the tumor was measured with respect to each group to obtain the results shown in Table 3.\nThe treatment was continued for 9 days. On the 11th day from the implantation, the tumor weight was measured with respect to each group to obtain results shown in Table 4."}, "E. coli W3110": {"system": "E. coli W3110", "test": "uptake of 14C-substrate (thymine, adenine, glutamic acid, alanine) by E. coli W3110", "conditions": "for adenine incorporation / alanine incorporation / glutamic acid incorporation / thymine incorporation: E. coli W3110", "description": "as §1, §2"}, "tumor cells of mice": {"system": "tumor cells of mice", "test": "control of tumor cells of mice", "conditions": "in words"}, "Ehrlich carcinoma [4]": {"system": "Ehrlich carcinoma", "test": "Test 4: survival effect, intraperitoneally implanted Ehrlich carcinoma (FIG. 4)", "format": "in vivo, mice of RFVL", "conditions": "10 days", "description": "Ten mice of RFVL which were 4 to 5 weeks old were used as the test animals and about 10^6 cells/0.2 ml of Ehrlich carcinoma were implanted intraperitoneally.\nIn FIG. 4, the suspension was administered at doses of 25, 50 and 100 mg/Kg/day to treated groups and the 0.85% biological sodium chloride solution alone was administered to a control group. Parenthesized values shown for each group are average values of the number of living days and the survival ratio."}, "[5]": {"system": "malignant cells of adenomatous carcinoma, squamous cell carninoma, sarcoma and the like, especially undifferentiated tumors", "test": "clinical experiments, sensitivity of malignant cells", "format": "in vivo, human", "conditions": "in words", "source_text": "(§4) In general, Ehrlich ascites tumor is highly sensitive to conventional carcinostatic agents of cytotoxic type, and Ehrlich solid tumor is relatively lowly sensitive to most of these known carcinostatic agents. […] Thus, the composition of the present invention is very unique in the point that it is efficacious against a broadrange of carcinomatous diseases."}, "Adeno-carcinoma 755 [6]": {"system": "Adeno-carcinoma 755", "test": "Test 1: tumor weight, subcutaneously implanted Adeno-carcinoma 755", "format": "in vivo, mice (first filial generation of C57BL/6 and DBA/2)", "conditions": "11th day", "description": "as §3"}, "Escherichia coli [7]": {"system": "Escherichia coli", "test": "outflow of incorporated substrates from Escherichia coli cells (FIG. 3)", "conditions": "FIG. 3, in words"}, "[8]": {"test": "continuous administration for 10 days, toxicity", "format": "in vivo", "source_text": "as §4"}, "Escherichia coli [9]": {"system": "Escherichia coli", "test": "influence on uptake of amino acids and nucleic acid bases by Escherichia coli (incl. time course, FIGS. 1 and 2)", "conditions": "in words", "description": "as §1"}},
  "note": "Values joined by “and” are separate entries in the source; they are usually repeats but may differ in a detail not shown here. Equal entries are not always repeated. “Also recorded” adds a separate entry of the source.",
  "data": [
    {"molecule": "O=Cc1ccccc1", "note": "[benzaldehyde]", "values": [
      {"measurement": "tryptophane incorporation", "setting": "E. coli S; benzaldehyde 10^-1 PPM", "value": 1076, "unit": "CPM"},
      {"measurement": "tryptophane incorporation", "setting": "E. coli S; benzaldehyde 10^-2 PPM", "value": 915, "unit": "CPM"},
      {"measurement": "tryptophane incorporation", "setting": "E. coli S; benzaldehyde 10^-3 PPM", "value": 808, "unit": "CPM"},
      {"measurement": "increase of the body weight during the test (average)", "setting": "Ehrlich carcinoma [1]; 10 mg/Kg i.p. for 9 days, 10 mice, same in control group", "value": 3.5, "unit": "g"},
      {"measurement": "Average Weight (tumor)", "setting": "Ehrlich carcinoma [1]; 10 mg/Kg i.p. for 9 days, 11th day, control 2.79 g", "value": 1.24, "unit": "g"},
      {"measurement": "Tumor Weight", "setting": "Ehrlich carcinoma [1]; individual animal, 10 mg/Kg i.p. once a day for 9 days, 11th day, 10 mg/kg", "value": "3.8 g and 2.4 g and 2.2 g and 0.8 g and 0.6 g and 0.5 g and 0.4 g and 0.3 g"},
      {"measurement": "effect on Ehrlich solid tumor", "setting": "Ehrlich carcinoma [1]; solid versus ascites tumor, in words", "value": "acts strongly on the solid tumor rather than the ascites tumor; also recorded: prominent effect on Erlich solid tumor"},
      {"measurement": "effect against lymphosarcoma", "setting": "lymphosarcoma", "value": "effective against lymphosarcoma"},
      {"measurement": "excretion from the living body", "setting": "[2]", "value": "promptly excreted from the living body; also recorded: promptly extracted from living bodies"},
      {"measurement": "Average Weight (tumor)", "setting": "Adeno-carcinoma 755 [3]; 3.5% suspension 0.1 ml i.p. for 9 days, control 5.90 g", "value": 3.55, "unit": "g"},
      {"measurement": "Tumor Weight", "setting": "Adeno-carcinoma 755 [3]; individual animal, 3.5% suspension 0.1 ml i.p. once a day for 9 days", "value": "3.3 g and 3.4 g and 4.0 g and 3.5 g"},
      {"measurement": "adenine incorporation", "setting": "E. coli W3110; adenine, benzaldehyde 10^-1 PPM", "value": 3135, "unit": "CPM"},
      {"measurement": "adenine incorporation", "setting": "E. coli W3110; adenine, benzaldehyde 10^-2 PPM", "value": 3684, "unit": "CPM"},
      {"measurement": "adenine incorporation", "setting": "E. coli W3110; adenine, benzaldehyde 10^-3 PPM", "value": 4246, "unit": "CPM"},
      {"measurement": "alanine incorporation", "setting": "E. coli W3110; alanine, benzaldehyde 10^-1 PPM", "value": 5283, "unit": "CPM"},
      {"measurement": "alanine incorporation", "setting": "E. coli W3110; alanine, benzaldehyde 10^-2 PPM", "value": 5438, "unit": "CPM"},
      {"measurement": "alanine incorporation", "setting": "E. coli W3110; alanine, benzaldehyde 10^-3 PPM", "value": 5838, "unit": "CPM"},
      {"measurement": "glutamic acid incorporation", "setting": "E. coli W3110; glutamic acid, benzaldehyde 10^-1 PPM", "value": 2842, "unit": "CPM"},
      {"measurement": "glutamic acid incorporation", "setting": "E. coli W3110; glutamic acid, benzaldehyde 10^-2 PPM", "value": 2779, "unit": "CPM"},
      {"measurement": "glutamic acid incorporation", "setting": "E. coli W3110; glutamic acid, benzaldehyde 10^-3 PPM", "value": 3203, "unit": "CPM"},
      {"measurement": "thymine incorporation", "setting": "E. coli W3110; thymine, benzaldehyde 10^-1 PPM", "value": 1399, "unit": "CPM"},
      {"measurement": "thymine incorporation", "setting": "E. coli W3110; thymine, benzaldehyde 10^-2 PPM", "value": 1566, "unit": "CPM"},
      {"measurement": "thymine incorporation", "setting": "E. coli W3110; thymine, benzaldehyde 10^-3 PPM", "value": 1891, "unit": "CPM"},
      {"measurement": "control of tumor cells of mice", "setting": "tumor cells of mice", "value": "effective for controlling tumor cells of mice"},
      {"measurement": "survival effect", "setting": "Ehrlich carcinoma [4]; 50 mg/Kg per day i.p.", "value": 15.4, "unit": "%"},
      {"measurement": "survival effect", "setting": "Ehrlich carcinoma [4]; 100 mg/Kg per day i.p.", "value": 26.9, "unit": "%"},
      {"measurement": "sensitivity of malignant cells", "setting": "[5]", "value": "highly sensitive to benzaldehyde"},
      {"measurement": "Average Weight (tumor)", "setting": "Adeno-carcinoma 755 [6]; 10 ppm suspension s.c. for 9 days, control 5.8 g", "value": 3.8, "unit": "g"},
      {"measurement": "Tumor Weight", "setting": "Adeno-carcinoma 755 [6]; individual animal, 10 ppm suspension 0.5 to 1.0 ml s.c. once a day for 9 days", "value": "4.6 g and 2.6 g and 4.1 g"},
      {"measurement": "damage to cell membranes", "setting": "Escherichia coli [7]", "value": "causes no damage to cell membranes"},
      {"measurement": "outflow of incorporated substrate", "setting": "Escherichia coli [7]", "value": "outflow of the substrate is remarkably reduced and is not changed from outflow of the substrate in the control system"},
      {"measurement": "daily dose without bad influences such as toxicity on the host", "setting": "[8]; administered continuously for 10 days", "value": "up to 200 mg/Kg"},
      {"measurement": "NOAEL at 240 h", "setting": "[8]; in vivo, ip, continuous intraperitoneal injection for 10 days, read-out: daily dose at which no toxicity is observed", "value": "≥ 200", "unit": "mg/kg/day"},
      {"measurement": "side effects", "setting": "[8]; in words", "value": "causes no side effects"},
      {"measurement": "influence on uptake of nucleic acids and other amino acids", "setting": "Escherichia coli [9]; substrates other than tryptophane", "value": "incorporation of nucleic acids and other amino acids is inhibited; also recorded: exerts an uptake inhibiting action in the case of other substrates"},
      {"measurement": "influence on uptake of tryptophane", "setting": "Escherichia coli [9]; tryptophane", "value": "the incorporation is promoted; also recorded: the uptake of tryptophane increases with the lapse of time; also recorded: specifically promotes the uptake of tryptophane among substrates"}
    ]},
    {"molecule": "colistin [reference compound]", "values": [
      {"measurement": "tryptophane incorporation", "setting": "E. coli S; colistin 5 PPM", "value": 439, "unit": "CPM"},
      {"measurement": "tryptophane incorporation, ratio (%) to the control", "setting": "E. coli S; colistin 5 PPM, control 100%", "value": 65, "unit": "%"},
      {"measurement": "adenine incorporation", "setting": "E. coli W3110; adenine, colistin 5 PPM", "value": 1066, "unit": "CPM"},
      {"measurement": "adenine incorporation, ratio (%) to the control", "setting": "E. coli W3110; adenine, colistin 5 PPM, control 100%", "value": 23, "unit": "%"},
      {"measurement": "alanine incorporation", "setting": "E. coli W3110; alanine, colistin 5 PPM", "value": 1009, "unit": "CPM"},
      {"measurement": "alanine incorporation, ratio (%) to the control", "setting": "E. coli W3110; alanine, colistin 5 PPM, control 100%", "value": 17, "unit": "%"},
      {"measurement": "glutamic acid incorporation", "setting": "E. coli W3110; glutamic acid, colistin 5 PPM", "value": 670, "unit": "CPM"},
      {"measurement": "glutamic acid incorporation, ratio (%) to the control", "setting": "E. coli W3110; glutamic acid, colistin 5 PPM, control 100%", "value": 16, "unit": "%"},
      {"measurement": "thymine incorporation", "setting": "E. coli W3110; thymine, colistin 5 PPM", "value": 333, "unit": "CPM"},
      {"measurement": "thymine incorporation, ratio (%) to the control", "setting": "E. coli W3110; thymine, colistin 5 PPM, control 100%", "value": 16, "unit": "%"},
      {"measurement": "damage to cell membranes", "setting": "Escherichia coli [7]", "value": "cell membranes are destroyed"},
      {"measurement": "outflow of incorporated substrate", "setting": "Escherichia coli [7]", "value": "outflow of the substrate is extreme"}
    ]}
  ]
}
